Entries after “also recorded” stand apart in the source; their conditions may differ. Structures can show the parent of a compound that is named as a salt.
What was measured:
[1] = Analgesic efficacy of morphine with CPT-11; format: in vivo; conditions: CPT-11 co-administration
[2] = tested on: MC38 colon adenocarcinoma cells; conditions: mouse, in vivo
[3] = tested on: MC38 colon adenocarcinoma cells; experiment: MC38 subcutaneous tumor model, anti-tumor efficacy of CPT-11; conditions: MC38 s.c. tumors; compared with saline controls
intestinal organoids = experiment: Intestinal organoids treated with CPT-11 with or without morphine; conditions: CPT-11 in the presence or absence of morphine
C57BL/6 mice [4] = experiment: CPT-11-induced GI toxicity in mice; conditions: for CPT-11-induced tissue damage in the ileum (histological score): co-administered with CPT-11 75 mg/kg, compared with CPT-11 alone
C57BL/6 mice [5] = experiment: Intestinal transit time with 70-kDa FITC-dextran; format: in vivo; conditions: compared to saline-treated mice
carboxylesterase (CES) = conditions: ref Quinney et al., 2005; cited from earlier work

SMILES: CCc1c2c(nc3ccc(OC(=O)N4CCC(N5CCCCC5)CC4)cc13)-c1cc3c(c(=O)n1C2)COC(=O)[C@]3(O)CC [CPT-11, Irinotecan hydrochloride]
- analgesic efficacy of morphine [1]: didn’t affect the analgesic efficacy of morphine
- body weight loss in tumor-bearing mice [2]: induced weight loss
- reduction of tumor sizes [3]: 41.6%
- growth of intestinal organoids (intestinal organoids): inhibited the growth of crypt stem cells

SMILES: CCOc1ccc(NC(=S)N(CCO)Cc2cc3cc(C)cc(C)c3[nH]c2=O)cc1 [Inh-1, 1-((6,8-Dimethyl-2-oxo-1,2-dihydroquinolin-3-yl)methyl)-3-(4-ethoxyphenyl)-1-(2-hydroxyethyl)thiourea]
- intestinal epithelial damage (ileal histology) (C57BL/6 mice [4]; Inh-1 in morphine + CPT-11-treated mice): rescued the intestinal epithelial damage observed with morphine and CPT-11

SMILES: Clc1cccc(Cl)c1N=C1NCCN1 [clonidine, Clonidine hydrochloride]
- gut transit time (C57BL/6 mice [5]): significantly prolonged gut transit time

SMILES: CN(C)C(=O)C(CCN1CCC(O)(c2ccc(Cl)cc2)CC1)(c1ccccc1)c1ccccc1 [loperamide, Loperamide]
- carboxylesterase inhibition (carboxylesterase (CES)): inhibitor of carboxylesterase (CES)
- CPT-11-induced tissue damage in the ileum (histological score) (C57BL/6 mice [4]): did not significantly exacerbate small intestinal tissue damage
- weight loss (C57BL/6 mice [4]; oral loperamide + CPT-11 vs CPT-11): did not significantly exacerbate

SMILES: CN1CC[C@]23c4c5ccc(O)c4O[C@H]2[C@@H](O)C=C[C@H]3[C@H]1C5 [morphine, Morphine sulfate]
- gut transit time (C57BL/6 mice [5]): significantly prolonged gut transit time
- growth of intestinal organoids (intestinal organoids): did not show any direct effects on CPT-11-treated organoids
- CPT-11-induced tissue damage in the large intestine (C57BL/6 mice [4]; co-administered with CPT-11): showed no effects on CPT-11-induced tissue damage
- CPT-11-induced tissue damage in the ileum (histological score) (C57BL/6 mice [4]): potentiated CPT-11-induced tissue damage in the ileum; also recorded: significantly potentiated CPT-11-induced tissue damage in the small intestines

— publication PMC10089971 (British journal of pharmacology, 2023)
